Assay results reported in patent publication EP2522335A1, “Use of resveratrol and sodium-ascorbyl-phophate” (DSM IP Assets B.V., priority 2011, dated 2012).
Read-outs that look alike come from different tables or passages of the source.

Test system: TYR
Assay: Assessment of gene modulation in normal human epidermal melanocytes (RT-qPCR, PCR array mQPA H-Melanocyte-64)
Format: cell-based
Details: NHEM cells, 72 hours treatment
Experimental: Normal human epidermal melanocytes were cultivated for 24 hours. Culture medium was then removed and replaced by fresh medium containing the active ingredient to be evaluated or exempt of it (control). Cells were cultivated for additional 72 hours. All experimental conditions were performed in triplicate. At the end of the cultivation, the cells were harvested and washed with phosphate buffered saline (PBS) solution and immediately frozen at -80 °C. The expression of selected markers was analyzed using RT-qPCR method on mRNA extracted from cells layer for each treatment condition. The differential expression analysis was performed by PCR arrays of the screening format "mQPA H-Melanocyte-64", which focuses on 64 genes selected for their importance in pigmentation and melanocyte biology. Total RNA was extracted from each sample using TRI-Reagent®. The amount and quality of the RNA was evaluated using a lab-on-a-chip Bioanalyzer (Agilent technologies). Potential contaminants traces of DNA were removed […] The incorporation of fluorescence in amplified DNA was measured continuously during the PCR cycles. […] The value selected for RE calculations is the "output point" (Ct) of the fluorescence curve. For a given marker, the highest is the cycle number; the lowest, is the mRNA quantity. The RE value is expressed in arbitrary units (AU) according to the equation: (((1)/(2)))^NC x 10^6 [formula] Where NC is the number of cycles.

[1] = resveratrol 5 µg/ml, sodium-ascorbyl-phosphate 1 mg/ml, combination 5 µg/ml + 1 mg/ml, read-out: TYR (expression ratio compared to control of the gene TYR)
[2] = resveratrol 5 micrograms/ml, sodium-ascorbyl-phosphate 1mg/ml, alone or combined, positive = up-regulation, negative = down-regulation, read-out: up-regulation / down-regulation of TYR when compared to untreated cells

Row | Compound | activation at 5 µg/mL [1] | activation at 5 µg/mL [2] | activation at 1000 µg/mL [1] | activation at 1000 µg/mL [2]
1 | Oc1ccc(C=Cc2cc(O)cc(O)c2)cc1 [Resveratrol, 3,4',5 trihydroxystilbene] | 25% | 25% |  | 
2 | O=C1O[C@H]([C@@H](O)CO)C(O)=C1OP(=O)(O)O [Sodium-ascorbyl-phosphate] |  |  | 30% | 30%
